Measurements published in ChEMBL document CHEMBL3228010, “Potential antitumor agents. 29. Quantitative structure-activity relationships for the antileukemic bisquaternary ammonium heterocycles” (J Med Chem, 1979).

What was measured:
L1210 [1] = assay: Antitumor activity against mouse L1210 cells […] in ip dosed C3H X DBA2 F1 hybrid mouse on day 0 and dosed at LD10 level once daily on days 1 to 5 assessed as increase in life span relative to control; assay type: functional
Mus musculus = assay: Toxicity in ip dosed C3H X DBA2 F1 hybrid mouse […] with mouse L1210 cells on day 0 and dosed once daily on days 1 to 5 measured after 50 days; assay type: organism-based; conditions: in vivo, 1200 h
L1210 [2] = assay: Antitumor activity against mouse L1210 cells […] in ip dosed C3H X DBA2 F1 hybrid mouse on day 0 and dosed once daily on days 1 to 5 assessed as increase in life span relative to control; assay type: functional
[3] = Lipophilic-hydrophilic balance, Rm of the compound by partition chromatography; assay type: physicochemical

## CCC[n+]1cccc(NC(=O)c2ccc(NC(=O)c3ccc(C(=O)Nc4ccc(C(=O)Nc5ccc[n+](CCC)c5)cc4)c(OC)c3)cc2)c1.Cc1ccc(S(=O)(=O)[O-])cc1.Cc1ccc(S(=O)(=O)[O-])cc1
L1210 [1]
  log(ILSmax): 1.6
Mus musculus
  LD10: 22 mg/kg
L1210 [2]
  D40: 22 mg/kg
[3]
  Rm: 0.78

## CC[n+]1cccc2ccc(NC(=O)c3ccc(-c4ccc(-c5ccc(-c6ccc(C(=O)Nc7ccc8ccc[n+](CC)c8c7)cc6)cc5)cc4)cc3)cc21.Cc1ccc(S(=O)(=O)[O-])cc1.Cc1ccc(S(=O)(=O)[O-])cc1
L1210 [1]
  log(ILSmax): 2.02
Mus musculus
  LD10: 106 mg/kg
L1210 [2]
  D40: 20.4 mg/kg
[3]
  Rm: 0.08

## CCC[n+]1ccc(Nc2ccc(NC(=O)c3ccc(Nc4cc[n+](CCC)c5ccc(N)cc45)cc3)cc2N)cc1.[I-].[I-]
L1210 [1]
  log(ILSmax): 1.95
Mus musculus
  LD10: 10 mg/kg
L1210 [2]
  D40: 3.6 mg/kg
[3]
  Rm: 0.41

## C[n+]1ccc(Nc2ccc(NC(=O)c3ccc(Nc4cc[n+](C)c5ccccc45)cc3N)cc2)cc1.[I-].[I-]
L1210 [1]
  log(ILSmax): 2.18
Mus musculus
  LD10: 29 mg/kg
L1210 [2]
  D40: 1.1 mg/kg
[3]
  Rm: 0.24

## CC[n+]1ccc(-c2ccc(-c3ccc(-c4ccc(NC(=O)c5ccc(C(=O)Nc6ccc(-c7ccc(-c8ccc(-c9cc[n+](CC)cc9)cc8)cc7)cc6)cc5)cc4)cc3)cc2)cc1.Cc1ccc(S(=O)(=O)[O-])cc1.Cc1ccc(S(=O)(=O)[O-])cc1
L1210 [1]
  log(ILSmax): 2.23
Mus musculus
  LD10: 14 mg/kg
L1210 [2]
  D40: 1.2 mg/kg
[3]
  Rm: 0.09

## CCCCC[n+]1cccc2cc(NC(=O)COc3ccc(C(=O)Nc4ccc5c(ccc[n+]5CCCCC)c4)cc3)ccc21.Cc1ccc(S(=O)(=O)[O-])cc1.Cc1ccc(S(=O)(=O)[O-])cc1
L1210 [1]
  log(ILSmax): 1.53
Mus musculus
  LD10: 150 mg/kg
L1210 [2]
  D40: 100 mg/kg
[3]
  Rm: 0.78

## CC[n+]1cc(-c2ccc(NC(=O)c3ccc(Nc4cc[n+](CC)c5ccc(N)cc45)cc3N)cc2)c(N)nc1N.Cc1ccc(S(=O)(=O)[O-])cc1.Cc1ccc(S(=O)(=O)[O-])cc1
L1210 [1]
  log(ILSmax): 2.28
Mus musculus
  LD10: 100 mg/kg
L1210 [2]
  D40: 8.6 mg/kg
[3]
  Rm: 0.33

## C[n+]1cccc(NC(=O)c2ccc(NC(=O)c3ccc(C(=O)Nc4ccc(C(=O)Nc5ccc[n+](C)c5)cc4)cc3)cc2)c1.[I-].[I-]
L1210 [1]
  log(ILSmax): 2.02
Mus musculus
  LD10: 17 mg/kg
L1210 [2]
  D40: 7.5 mg/kg
[3]
  Rm: -0.12

## CC[n+]1c(C)cc(Nc2ccc(NC(=O)c3ccc(C(=O)Nc4ccc(Nc5cc(C)[n+](CC)c(N)n5)cc4)cc3)cc2)nc1N.Cc1ccc(S(=O)(=O)[O-])cc1.Cc1ccc(S(=O)(=O)[O-])cc1
L1210 [1]
  log(ILSmax): 2.09
Mus musculus
  LD10: 200 mg/kg
L1210 [2]
  D40: 69 mg/kg
[3]
  Rm: -0.4

## CCC[n+]1cccc(NC(=O)c2ccc(NC(=O)c3ccc(C(=O)Nc4ccc(C(=O)Nc5ccc[n+](CCC)c5)cc4OC)cc3)c(OC)c2)c1.Cc1ccc(S(=O)(=O)[O-])cc1.Cc1ccc(S(=O)(=O)[O-])cc1
L1210 [1]
  log(ILSmax): 1.6
Mus musculus
  LD10: 140 mg/kg
L1210 [2]
  D40: 140 mg/kg
[3]
  Rm: 0.3

## CC[n+]1cccc2ccc(NC(=O)c3ccc(NC(=O)c4ccc(C(=O)Nc5ccc6ccc[n+](CC)c6c5)cc4)cc3)cc21.Cc1ccc(S(=O)(=O)[O-])cc1.Cc1ccc(S(=O)(=O)[O-])cc1
L1210 [1]
  log(ILSmax): 2
Mus musculus
  LD10: 30 mg/kg
L1210 [2]
  D40: 12 mg/kg
[3]
  Rm: -0.4

## CC[n+]1cccc(NC(=O)c2ccc(NC(=O)c3ccc(C(=O)Nc4ccc(C(=O)Nc5ccc[n+](CC)c5)cc4)c(C)c3)cc2)c1.Cc1ccc(S(=O)(=O)[O-])cc1.Cc1ccc(S(=O)(=O)[O-])cc1
L1210 [1]
  log(ILSmax): 1.85
Mus musculus
  LD10: 26 mg/kg
L1210 [2]
  D40: 9.6 mg/kg
[3]
  Rm: 0.38

## CCC[n+]1ccc(-c2ccc(-c3ccc(-c4ccc(NC(=O)c5ccc(C(=O)Nc6ccc(-c7ccc(-c8ccc(-c9cc[n+](CCC)cc9)cc8)cc7)cc6)cc5)cc4)cc3)cc2)cc1.Cc1ccc(S(=O)(=O)[O-])cc1.Cc1ccc(S(=O)(=O)[O-])cc1
L1210 [1]
  log(ILSmax): 2.03
Mus musculus
  LD10: 10 mg/kg
L1210 [2]
  D40: 4.6 mg/kg
[3]
  Rm: 0.46

## C[n+]1cccc(NC(=O)c2ccc(NC(=O)c3ccc(C(=O)Nc4ccc(C(=O)Nc5ccc[n+](C)c5)cc4)cc3)cc2)c1.Cc1ccc(S(=O)(=O)[O-])cc1.Cc1ccc(S(=O)(=O)[O-])cc1
L1210 [1]
  log(ILSmax): 2.13
Mus musculus
  LD10: 56 mg/kg
L1210 [2]
  D40: 5.9 mg/kg
[3]
  Rm: -0.74

## CCCC[n+]1cccc2cc(NC(=O)c3ccc(C(=O)Nc4ccc5c(ccc[n+]5CCCC)c4)cc3)ccc21.Cc1ccc(S(=O)(=O)[O-])cc1.Cc1ccc(S(=O)(=O)[O-])cc1
L1210 [1]
  log(ILSmax): 2.04
Mus musculus
  LD10: 59 mg/kg
L1210 [2]
  D40: 25 mg/kg
[3]
  Rm: 0.67

## CC[n+]1cccc(NC(=O)c2ccc(NC(=O)c3ccc(C(=O)Nc4ccc(C(=O)Nc5ccc[n+](CC)c5)c(OC)c4)cc3)cc2OC)c1.Cc1ccc(S(=O)(=O)[O-])cc1.Cc1ccc(S(=O)(=O)[O-])cc1
L1210 [1]
  log(ILSmax): 1.76
Mus musculus
  LD10: 40 mg/kg
L1210 [2]
  D40: 24 mg/kg
[3]
  Rm: 0.45

## CC[n+]1ccc(Nc2ccc(NC(=O)c3ccc(C(=O)Nc4ccc(Nc5cc[n+](CC)c(N)n5)cc4)cc3)cc2)nc1N.Cc1ccc(S(=O)(=O)[O-])cc1.Cc1ccc(S(=O)(=O)[O-])cc1
L1210 [1]
  log(ILSmax): 2.06
Mus musculus
  LD10: 112 mg/kg
L1210 [2]
  D40: 10 mg/kg
[3]
  Rm: -0.3

## CC[n+]1cccc(NC(=O)c2ccc(NC(=O)c3ccc(C(=O)Nc4ccc(C(=O)Nc5ccc[n+](CC)c5)cc4)c(Cl)c3)cc2)c1.Cc1ccc(S(=O)(=O)[O-])cc1.Cc1ccc(S(=O)(=O)[O-])cc1
L1210 [1]
  log(ILSmax): 1.7
Mus musculus
  LD10: 29 mg/kg
L1210 [2]
  D40: 22 mg/kg
[3]
  Rm: 0.42

## CCCC[n+]1cccc2cc(NC(=O)c3ccc(NC(=O)c4ccc(C(=O)Nc5ccc6c(ccc[n+]6CCCC)c5)cc4)cc3)ccc21.Cc1ccc(S(=O)(=O)[O-])cc1.Cc1ccc(S(=O)(=O)[O-])cc1
L1210 [1]
  log(ILSmax): 1.91
Mus musculus
  LD10: 100 mg/kg
L1210 [2]
  D40: 41 mg/kg
[3]
  Rm: 0.26

## CCC[n+]1cccc(NC(=O)c2ccc(NC(=O)c3ccc(C(=O)Nc4ccc(C(=O)Nc5ccc[n+](CCC)c5)c(N)c4)cc3)cc2N)c1.Cc1ccc(S(=O)(=O)[O-])cc1.Cc1ccc(S(=O)(=O)[O-])cc1
L1210 [1]
  log(ILSmax): 2.02
Mus musculus
  LD10: 30 mg/kg
L1210 [2]
  D40: 5 mg/kg
[3]
  Rm: -0.38

## CC[n+]1ccc(Nc2ccc(C(=O)Nc3ccc(/C(C)=N/NC(=N)N)cc3)c(N)c2)c2cc(N)ccc21.Cc1ccc(S(=O)(=O)O)cc1.Cc1ccc(S(=O)(=O)[O-])cc1
L1210 [1]
  log(ILSmax): 2.32
Mus musculus
  LD10: 50 mg/kg
L1210 [2]
  D40: 6 mg/kg
[3]
  Rm: -0.2

## CC[n+]1ccc(Nc2ccc(NC(=O)/C=C/c3ccc(C(=O)Nc4ccc(Nc5cc[n+](CC)cc5)c(N)c4)cc3)cc2N)cc1.[Br-].[Br-]
L1210 [1]
  log(ILSmax): 2.3
Mus musculus
  LD10: 7.5 mg/kg
L1210 [2]
  D40: 1.4 mg/kg
[3]
  Rm: 0.35

## CC[n+]1ccc(-c2ccc(NC(=O)c3ccc(Nc4cc[n+](CC)c5ccccc45)cc3)cc2)cc1.Cc1ccc(S(=O)(=O)[O-])cc1.Cc1ccc(S(=O)(=O)[O-])cc1
L1210 [1]
  log(ILSmax): 1.98
Mus musculus
  LD10: 10 mg/kg
L1210 [2]
  D40: 2.7 mg/kg
[3]
  Rm: 0.55

## CC[n+]1ccc(Nc2ccc(NC(=O)c3ccc(C(=O)Nc4ccc(Nc5cc[n+](CC)cc5)cc4)cc3)cc2)cc1.Cc1ccc(S(=O)(=O)[O-])cc1.Cc1ccc(S(=O)(=O)[O-])cc1
L1210 [1]
  log(ILSmax): 2.24
Mus musculus
  LD10: 2.5 mg/kg
L1210 [2]
  D40: 0.5 mg/kg
[3]
  Rm: 0.46

## CC[n+]1ccc(Nc2ccc(NC(=O)/C=C/c3ccc(C(=O)Nc4ccc(Nc5cc[n+](CC)cc5)cc4)cc3)cc2)cc1.Cc1ccc(S(=O)(=O)[O-])cc1.Cc1ccc(S(=O)(=O)[O-])cc1
L1210 [1]
  log(ILSmax): 2.2
Mus musculus
  LD10: 8 mg/kg
L1210 [2]
  D40: 1.6 mg/kg
[3]
  Rm: -0.03

## CCC[n+]1ccc(Nc2ccc(NC(=O)c3ccc(Nc4cc[n+](CCC)c5ccccc45)cc3N)cc2)cc1.[I-].[I-]
L1210 [1]
  log(ILSmax): 1.6
Mus musculus
  LD10: 24 mg/kg
L1210 [2]
  D40: 24 mg/kg
[3]
  Rm: 0.71

## CC[n+]1ccc(Nc2ccc(NC(=O)/C=C/c3ccc(/C=C/C(=O)Nc4ccc(Nc5cc[n+](CC)cc5)cc4)cc3)cc2)cc1.Cc1ccc(S(=O)(=O)[O-])cc1.Cc1ccc(S(=O)(=O)[O-])cc1
L1210 [1]
  log(ILSmax): 1.88
Mus musculus
  LD10: 32 mg/kg
L1210 [2]
  D40: 9 mg/kg
[3]
  Rm: -0.05

## CC[n+]1cccc(-c2ccc(NC(=O)/C=C/c3ccc(C(=O)Nc4ccc(-c5ccc(-c6ccc(-c7ccc[n+](CC)c7)cc6)cc5)cc4)cc3)cc2)c1.Cc1ccc(S(=O)(=O)[O-])cc1.Cc1ccc(S(=O)(=O)[O-])cc1
L1210 [1]
  log(ILSmax): 2.25
Mus musculus
  LD10: 60 mg/kg
L1210 [2]
  D40: 5.2 mg/kg
[3]
  Rm: -0.3

## CC[n+]1cccc2cc(NC(=O)c3ccc(C(=O)Nc4ccc(NC(=O)c5ccc6c(ccc[n+]6CC)c5)cc4)cc3)ccc21.Cc1ccc(S(=O)(=O)[O-])cc1.Cc1ccc(S(=O)(=O)[O-])cc1
L1210 [1]
  log(ILSmax): 1.9
Mus musculus
  LD10: 50 mg/kg
L1210 [2]
  D40: 35 mg/kg
[3]
  Rm: -0.35

## C[n+]1cccc(NC(=O)c2ccc(NC(=O)c3ccc(C(=O)Nc4ccc5c(ccc[n+]5C)c4)cc3)cc2)c1.Cc1ccc(S(=O)(=O)[O-])cc1.Cc1ccc(S(=O)(=O)[O-])cc1
L1210 [1]
  log(ILSmax): 2.03
Mus musculus
  LD10: 27 mg/kg
L1210 [2]
  D40: 12 mg/kg
[3]
  Rm: -0.25

## CCC[n+]1cccc(-c2ccc(NC(=O)c3ccc(C(=O)Nc4ccc(-c5ccc(-c6ccc(-c7ccc[n+](CCC)c7)cc6)cc5)cc4)cc3)cc2)c1.Cc1ccc(S(=O)(=O)[O-])cc1.Cc1ccc(S(=O)(=O)[O-])cc1
L1210 [1]
  log(ILSmax): 2.16
Mus musculus
  LD10: 59 mg/kg
L1210 [2]
  D40: 4 mg/kg
[3]
  Rm: -0.25
